This data set concerns CCRIS mutagenicity, Ames/micronucleus/aberration tests. In words: CCRIS mutagenicity studies.
Where [1] appears, read: Test System: AMES SALMONELLA TYPHIMURIUM, Strain/Indicator: TA98, Metabolic Activation: NONE, Method: STANDARD PLATE.
Where [2] appears, read: Test System: AMES SALMONELLA TYPHIMURIUM, Strain/Indicator: TA100, Metabolic Activation: NONE, Method: STANDARD PLATE.

Molecules are shown by their SMILES. Active and inactive are the calls of the source. The rule behind the calls is not given here.

As to `COCCOC(C)=O`, the mutagenic call was “inactive; negative” (End Point: IN VITRO CHROMOSOMAL ABERRATIONS, Test System: CHO-LB CELLS, Metabolic Activation: NONE); “active; positive” (End Point: IN VITRO CHROMOSOMAL ABERRATIONS, Test System: CHO-LB CELLS, Metabolic Activation: RAT, LIVER, S-9, AROCLOR 1254); “inactive; negative” (Test System: AMES SALMONELLA TYPHIMURIUM, Strain/Indicator: TA97, Metabolic Activation: HAMSTER, LIVER, S-9, AROCLOR 1254 (10 OR 30%), Method: PREINCUBATION); “inactive; negative” (Test System: AMES SALMONELLA TYPHIMURIUM, Strain/Indicator: TA97, Metabolic Activation: NONE, Method: PREINCUBATION); “inactive; negative” (Test System: AMES SALMONELLA TYPHIMURIUM, Strain/Indicator: TA97, Metabolic Activation: RAT, LIVER, S-9, AROCLOR 1254 (10 OR 30%), Method: PREINCUBATION); “inactive; negative” (Test System: AMES SALMONELLA TYPHIMURIUM, Strain/Indicator: TA98, Metabolic Activation: HAMSTER, LIVER, S-9, AROCLOR 1254 (10 OR 30%), Method: PREINCUBATION). In addition, the mutagenic call reads like this: (Test System: AMES SALMONELLA TYPHIMURIUM, Strain/Indicator: TA98, Metabolic Activation: NONE, Method: PREINCUBATION) “inactive; negative”; (Test System: AMES SALMONELLA TYPHIMURIUM, Strain/Indicator: TA98, Metabolic Activation: RAT, LIVER, S-9, AROCLOR 1254 (10 OR 30%), Method: PREINCUBATION) “inactive; negative”; (Test System: AMES SALMONELLA TYPHIMURIUM, Strain/Indicator: TA100, Metabolic Activation: HAMSTER, LIVER, S-9, AROCLOR 1254 (10 OR 30%), Method: PREINCUBATION) “inactive; negative”; (Test System: AMES SALMONELLA TYPHIMURIUM, Strain/Indicator: TA100, Metabolic Activation: NONE, Method: PREINCUBATION) “inactive; negative”; (Test System: AMES SALMONELLA TYPHIMURIUM, Strain/Indicator: TA100, Metabolic Activation: RAT, LIVER, S-9, AROCLOR 1254 (10 OR 30%), Method: PREINCUBATION) “inactive; negative”; (Test System: AMES SALMONELLA TYPHIMURIUM, Strain/Indicator: TA1535, Metabolic Activation: HAMSTER, LIVER, S-9, AROCLOR 1254 (10 OR 30%), Method: PREINCUBATION) “inactive; negative”. Further, the mutagenic call (Test System: AMES SALMONELLA TYPHIMURIUM, Strain/Indicator: TA1535, Metabolic Activation: NONE, Method: PREINCUBATION) is “inactive; negative”; the mutagenic call (Test System: AMES SALMONELLA TYPHIMURIUM, Strain/Indicator: TA1535, Metabolic Activation: RAT, LIVER, S-9, AROCLOR 1254 (10 OR 30%), Method: PREINCUBATION) is “inactive; negative”; the mutagenic call (Test System: AMES SALMONELLA TYPHIMURIUM, Strain/Indicator: TA1537, Metabolic Activation: HAMSTER, LIVER, S-9, AROCLOR 1254 (30%), Method: PREINCUBATION) is “inactive; negative”; the mutagenic call (Test System: AMES SALMONELLA TYPHIMURIUM, Strain/Indicator: TA1537, Metabolic Activation: NONE, Method: PREINCUBATION) was “inactive; negative”; the mutagenic call (Test System: AMES SALMONELLA TYPHIMURIUM, Strain/Indicator: TA1537, Metabolic Activation: RAT, LIVER, S-9, AROCLOR 1254 (30%), Method: PREINCUBATION) was “inactive; negative”.

Regarding `O=C(Nc1cccc(Cl)c1)c1csc([N+](=O)[O-])c1`, the mutagenic call was “active; positive” under setting [1] and “active; positive” under setting [2].

Consider `CN(CCCCO)N=O`, for which the mutagenic call (Test System: AMES SALMONELLA TYPHIMURIUM, Strain/Indicator: TA1535, Metabolic Activation: RAT, LIVER, S-9, KC500 OR PHENOBARBITAL, Method: LIQUID SUSPENSION) is “active; positive”.

In the case of `O=C(COc1cc(Cl)c(Cl)cc1Cl)N[C@@H](Cc1c[nH]c2ccccc12)C(=O)O`, the mutagenic call reads like this: (Test System: AMES SALMONELLA TYPHIMURIUM, Strain/Indicator: TA97, Metabolic Activation: NONE, Method: STANDARD PLATE) “inactive; negative”; (Test System: AMES SALMONELLA TYPHIMURIUM, Strain/Indicator: TA97, Metabolic Activation: RAT, LIVER, S-9, AROCLOR 1254, Method: STANDARD PLATE) “inactive; negative”; under setting [1], “inactive; negative”; (Test System: AMES SALMONELLA TYPHIMURIUM, Strain/Indicator: TA98, Metabolic Activation: RAT, LIVER, S-9, AROCLOR 1254, Method: STANDARD PLATE) “inactive; negative”; under setting [2], “inactive; negative”; (Test System: AMES SALMONELLA TYPHIMURIUM, Strain/Indicator: TA100, Metabolic Activation: RAT, LIVER, S-9, AROCLOR 1254, Method: STANDARD PLATE) “inactive; negative”. Besides, the mutagenic call is “inactive; negative” (Test System: AMES SALMONELLA TYPHIMURIUM, Strain/Indicator: TA1535, Metabolic Activation: NONE, Method: STANDARD PLATE); “inactive; negative” (Test System: AMES SALMONELLA TYPHIMURIUM, Strain/Indicator: TA1535, Metabolic Activation: RAT, LIVER, S-9, AROCLOR 1254, Method: STANDARD PLATE); “inactive; negative” (Test System: AMES SALMONELLA TYPHIMURIUM, Strain/Indicator: TA1538, Metabolic Activation: NONE, Method: STANDARD PLATE); “inactive; negative” (Test System: AMES SALMONELLA TYPHIMURIUM, Strain/Indicator: TA1538, Metabolic Activation: RAT, LIVER, S-9, AROCLOR 1254, Method: STANDARD PLATE).
